# Laboratory results published in patent publication US20050112079A1, “Depilatories and agents for external use” (KAO CORPORATION, priority 1999, published 2005).
# Where no end group is shown, it is not given here.
# What was measured:
# regrowth of dorsal hair = experiment: Hair growth test in mice, application to depilated skin; assay type: in vivo, C3H/HeNCrj mouse; details: mouse, 0.5 mg in 2.5 mL PEG 400/PEG 3350 (95/5), 25 μL/application once a day over 2 weeks; regrown hair area/depilated area×100
# Procedure: Endothelin-1 (0.5 mg) was dissolved in a mixed solution (2.5 mL) of polyethylene glycol 400 (average molecular weight: 400) and polyethylene glycol 3350 (average molecular weight: 3,350) (mixing ratio: 95/5) to prepare a hair growth inhibitor. Dorsal hair of each 8-week old C3H/HeNCrj mouse was removed with a depilatory cream (over an area of 2×4 cm^2), and the hair growth inhibitor was applied to the depilated site once a day at a dose of 25 μL/application over 2 weeks. A group in which only the solvent was similarly applied was employed as a control group. To observe regrowth of hair, the above-described depilated site on day 14 after the depilation was photographed at a predetermined fixed magnification, and the percentage of a regrown hair area (regrown hair area/depilated area×100) was determined using an image analyzer.
# [1] = tested on: hair at the dorsal part of a guinea pig; experiment: Depilation inducing effects of endothelin, intracutaneous administration; assay type: in vivo; details: 0.3 μg intracutaneous (50 μL/site), 10 days after the administration
# Procedure: (§1) A solution of endothelin-1 (0.3 μg) in phosphate buffer solution (PBS), which contained 0.1% of bovine serum albumin (BSA), was intracutaneously administered (at 50 μL/site) to the dorsal part of a guinea pig.
# [2] = tested on: growth-phase hair follicles; experiment: Growth-phase hair follicle inhibitory effects, number of hair shafts grown per unit area; assay type: in vivo; details: guinea pig dorsal, 1 μg intracutaneous, fifth day after the administration (FIG. 1)
# Procedure: Solutions (1 μg, each) of endothelin-1, endothelin-2 and endotherin-3 in aliquots of phosphate buffer solution (PBS), which contained 0.1% of bovine serum albumin (BSA), were intracutaneously administered (at 50 μL/site) to the dorsal parts of guinea pigs, respectively, from which hair had been cut off by a hair clipper. Three days after the administration, hair was again cut off by a hair clipper from the administered sites. Two days after the cutting, the numbers of hair shafts grown per unit area at the administered sites were counted.
# [3] = tested on: hair follicle organs in growth phase isolated from human scalp tissue; experiment: Growth inhibitory effects on organ-cultured hair follicles; assay type: cell-based
# Procedure: From a human scalp tissue, hair follicle organs in growth phase were surgically isolated under a stereomicroscope. Following a conventional procedure [Philpott M. P., et al., J. Cell Sci., 97, 463-471 (1990)], the isolated hair follicles were subjected to organ culture. Described specifically, endothelin-1 was added to William's E medium which contained L-glutamine (2 mM), hydrocortisone (10 ng/mL), insulin (10 μg/mL), sodium selenite (10 ng/mL) and transferrin (10 μg/mL).
# [4] = tested on: growth-phase hair follicle; experiment: Structural changes of hair follicle structure, hematoxylin-eosin stained dorsal skin; assay type: in vivo; details: guinea pig, 0.3 μg intracutaneous
# Procedure: as §1, with “[…]” for “0.1%”, “pig. After that, samples were collected day after day from the administered dorsal skin, and tissue samples were prepared by hematoxylin-eosin staining.” for “pig.”
Molecule,Percentage of regrown hair area on day 14 after depilation (regrowth of dorsal hair),Depilation at the administered site [1],Number of hair shafts grown per unit area at the administered site [2],Grown hair follicle length versus control group ([3]; day 4 of incubation and the subsequent days (FIG. 3)),Structural change of incubated hair follicles ([3]; during the incubation period (FIG. 4)),Hair follicle histology ([4]; 1st day after the administration (FIG. 2)),Hair follicle histology ([4]; 3rd day after the administration (FIG. 2))
"CC[C@H](C)[C@H](NC(=O)[C@H](CC(=O)O)NC(=O)[C@H](CC(C)C)NC(=O)[C@H](Cc1c[nH]cn1)NC(=O)[C@@H]1CSSC[C@H](N)C(=O)N[C@@H](CO)C(=O)N[C@H]2CSSC[C@H](NC(=O)[C@H](CCC(=O)O)NC(=O)[C@H](CCCCN)NC(=O)[C@H](CC(=O)O)NC(=O)[C@H](CCSC)NC(=O)[C@H](CC(C)C)NC(=O)[C@H](CO)NC(=O)[C@H](CO)NC2=O)C(=O)N[C@@H](C(C)C)C(=O)N[C@@H](Cc2ccc(O)cc2)C(=O)N[C@@H](Cc2ccccc2)C(=O)N1)C(=O)N[C@H](C(=O)N[C@@H](Cc1c[nH]c2ccccc12)C(=O)O)[C@@H](C)CC [Endothelin-1, endothelin-1]",2.22 Percentage,hair shaft falling-off and formation of a marked depilation spot,significant (p<0.01) decrease in the number of hair shafts,significant hair growth inhibitory effects,"structural change of the endothelin-treated, growth-phase hair follicles into those similar to resting-phase hair follicles",regressed image of a growth-phase hair follicle,image of a follicular tissue in transition phase
"endothelin-2 (CSCSSWLDKECVYFCHLDIIW; ends and bridges not checked; cysteine pairing not given here; UniProt P20800 49-69, looked up) [isoform of endothelin, a peptide composed of 21 amino acid residues]",–,–,significant (p<0.01) decrease in the number of hair shafts,–,–,–,–
"endothelin-3 (CTCFTYKDKECVYYCHLDIIW; ends and bridges not checked; cysteine pairing not given here; UniProt P14138 97-117, looked up) [endotherin-3, isoform of endothelin, a peptide composed of 21 amino acid residues]",–,–,significant (p<0.01) decrease in the number of hair shafts,–,–,–,–
